Numbered stars: 1 amine (or outer) side, 2 acyl side, 3 side chain; on linkers, the order of the positions; unused ones are H or OH. Bridge positions count the residues as written; N and C are the ends. Square brackets hold non-standard residues; d marks the D form. Peptide text beside a SMILES is read from it. I, II: the chains in the order shown. * marks the point of attachment. ξ: configuration not given here. DOTA = O=C(O)CN1CCN(CC(=O)O)CCN(CC(=O)*)CCN(CC(=O)O)CC1; Trp(7-OMe) = COc1cccc2c(C[C@H](N)C(=O)O)c[nH]c12; Trp(7-Me) = Cc1cccc2c(C[C@H](N)C(=O)O)c[nH]c12; 2Nal = N[C@@H](Cc1ccc2ccccc2c1)C(=O)O; C12 diacid = O=C(O)CCCCCCCCCCC(=O)*; Palmitoyl = CCCCCCCCCCCCCCCC(=O)*; NMeL = CN[C@@H](CC(C)C)C(=O)O; NMeK = CN[C@@H](CCCCN)C(=O)O; Lauroyl = CCCCCCCCCCCC(=O)*; CH2 = C([*:1])[*:2]; ξP = O=C(O)C1CCCN1
Target: T1, human DLL3 (Homo sapiens, UniProt Q9NYJ7)
T1 sequence (Q9NYJ7 27-618): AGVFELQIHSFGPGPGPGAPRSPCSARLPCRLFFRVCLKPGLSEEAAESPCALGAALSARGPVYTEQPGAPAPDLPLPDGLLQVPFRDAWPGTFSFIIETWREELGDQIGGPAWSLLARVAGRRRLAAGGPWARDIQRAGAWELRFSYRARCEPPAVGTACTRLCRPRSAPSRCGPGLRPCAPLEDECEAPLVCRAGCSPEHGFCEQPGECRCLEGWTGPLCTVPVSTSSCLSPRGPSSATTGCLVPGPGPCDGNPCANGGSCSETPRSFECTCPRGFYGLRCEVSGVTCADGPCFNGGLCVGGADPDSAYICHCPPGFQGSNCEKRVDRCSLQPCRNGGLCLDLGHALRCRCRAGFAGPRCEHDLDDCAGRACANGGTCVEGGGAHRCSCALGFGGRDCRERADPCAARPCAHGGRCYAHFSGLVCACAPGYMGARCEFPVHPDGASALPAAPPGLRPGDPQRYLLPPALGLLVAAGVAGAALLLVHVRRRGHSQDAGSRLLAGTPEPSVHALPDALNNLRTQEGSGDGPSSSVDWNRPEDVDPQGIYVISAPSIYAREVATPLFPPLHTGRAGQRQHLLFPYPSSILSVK
Experiment: Affinity determination by Surface Plasmon Resonance (SPR)
Type: binding
Details: 25° C., biotinylated human DLL3 immobilized on streptavidin sensor chip, 1:1 binding model; read-out: SPR KD
Method in brief: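 Biotinylated human DLL3 was captured on a streptavidin chip with a reference surface. Compounds at several concentrations were injected at 100 μL/minute in phosphate buffer (137 mM NaCl, 2.7 mM KCl, 0.05% P20, 2% DMSO). Affinity and kinetics came from 1:1 model fits of the sensorgrams.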

Kd [nM] | SMILES
< 1 | CC[C@H](C)[C@H](NC(=O)[C@@H](NC(=O)[C@H](Cc1c[nH]c2ccccc12)NC(C)=O)[C@@H](C)O)C(=O)N[C@H]1CSSC[C@@H](C(=O)N[C@@H](Cc2c[nH]c3ccccc23)C(=O)N2CCC[C@H]2C(=O)N[C@H](CCCCNC(=O)CN2CCN(CC(=O)O)CCN(CC(=O)O)CCN(CC(=O)O)CC2)C(N)=O)NC(=O)[C@H](CC(=O)O)NC(=O)[C@H](Cc2cnc[nH]2)NC(=O)[C@H](Cc2c[nH]c3c(OC)cccc23)NC(=O)[C@H](CC(N)=O)NC(=O)[C@H](CC(N)=O)NC1=O [compound 296, Ac-W-T-I-C(3)-N-N-(7-MeO-W)-H-D-C(3)-W-P-[D-Lys(DOTA)]-NH2] (Ac-WTICNN[Trp(7-OMe)]HDCWP[dK](DOTA)-NH2; disulfide 4-10)
< 1 | CC[C@H](C)[C@H](NC(=O)[C@@H](NC(=O)[C@H](Cc1c[nH]c2ccccc12)NC(C)=O)[C@@H](C)O)C(=O)N[C@H]1CSSC[C@@H](C(=O)N[C@@H](Cc2c[nH]c3c(C)cccc23)C(=O)N2CCC[C@H]2C(=O)N[C@H](CCCCNC(=O)CN2CCN(CC(=O)O)CCN(CC(=O)O)CCN(CC(=O)O)CC2)C(N)=O)NC(=O)[C@H](CC(=O)O)NC(=O)[C@H](Cc2cnc[nH]2)NC(=O)[C@H](Cc2c[nH]c3ccccc23)NC(=O)[C@H](CC(N)=O)NC(=O)[C@H](CC(N)=O)NC1=O [compound 298, Ac-W-T-I-C(3)-N-N-W-H-D-C(3)-(7-Me-W)-P-[D-Lys(DOTA)]-NH2] (Ac-WTICNNWHDC[Trp(7-Me)]P[dK](DOTA)-NH2; disulfide 4-10)
< 1 | CC[C@H](C)[C@H](NC(=O)[C@@H](NC(=O)[C@H](Cc1c[nH]c2ccccc12)NC(C)=O)[C@@H](C)O)C(=O)N[C@H]1CSSC[C@@H](C(=O)N[C@@H](Cc2c[nH]c3c(OC)cccc23)C(=O)N2CCC[C@H]2C(=O)N[C@H](CCCCNC(=O)CN2CCN(CC(=O)O)CCN(CC(=O)O)CCN(CC(=O)O)CC2)C(N)=O)NC(=O)[C@H](CC(=O)O)NC(=O)[C@H](Cc2cnc[nH]2)NC(=O)[C@H](Cc2c[nH]c3ccccc23)NC(=O)[C@H](CC(N)=O)NC(=O)[C@H](CC(N)=O)NC1=O [compound 299, Ac-W-T-I-C(3)-N-N-W-H-D-C(3)-(7-MeO-W)-P-[D-Lys(DOTA)]-NH2] (Ac-WTICNNWHDC[Trp(7-OMe)]P[dK](DOTA)-NH2; disulfide 4-10)
< 1 | CC[C@H](C)[C@H](NC(=O)[C@@H](NC(=O)[C@H](Cc1c[nH]c2ccccc12)NC(C)=O)[C@@H](C)O)C(=O)N[C@H]1CSCSC[C@@H](C(=O)N[C@@H](Cc2c[nH]c3ccccc23)C(=O)N2CCCC2C(=O)N[C@@H](CCCCNC(=O)CN2CCN(CC(=O)O)CCN(CC(=O)O)CCN(CC(=O)O)CC2)C(N)=O)NC(=O)[C@H](CC(=O)O)NC(=O)[C@H](Cc2cnc[nH]2)NC(=O)[C@H](Cc2ccc3ccccc3c2)NC(=O)[C@H](CC(N)=O)NC(=O)[C@H](CC(N)=O)NC1=O (stereo partly drawn) [compound 329, Ac-W-T-I-C(1)-N-N-(2Nal)-H-D-C(1)-W-P-[L-Lys(DOTA)]-NH2] (Ac-WTICNN[2Nal]HDCW[ξP]K(DOTA)-NH2; linker 4-10 via CH2)
< 1 | CC[C@H](C)[C@H](NC(=O)[C@@H](NC(=O)[C@H](Cc1c[nH]c2c(C)cccc12)NC(C)=O)[C@@H](C)O)C(=O)N[C@H]1CSCSC[C@@H](C(=O)N[C@@H](Cc2c[nH]c3ccccc23)C(=O)N2CCCC2C(=O)N[C@H](CCCCNC(=O)CN2CCN(CC(=O)O)CCN(CC(=O)O)CCN(CC(=O)O)CC2)C(N)=O)NC(=O)[C@H](CC(=O)O)NC(=O)[C@H](Cc2cnc[nH]2)NC(=O)[C@H](Cc2ccc3ccccc3c2)NC(=O)[C@H](CC(N)=O)NC(=O)[C@H](CC(N)=O)NC1=O (stereo partly drawn) [compound 330, Ac-7MeW-T-I-C(1)-N-N-(2Nal)-H-D-C(1)-W-P-[D-Lys(DOTA)]-NH2] (Ac-[Trp(7-Me)]TICNN[2Nal]HDCW[ξP][dK](DOTA)-NH2; linker 4-10 via CH2)
< 1 | CC[C@H](C)[C@H](NC(=O)[C@@H](NC(=O)[C@H](Cc1c[nH]c2c(OC)cccc12)NC(C)=O)[C@@H](C)O)C(=O)N[C@H]1CSSC[C@@H](C(=O)N[C@@H](Cc2c[nH]c3ccccc23)C(=O)N2CCC[C@H]2C(=O)N[C@H](CCCCNC(=O)CN2CCN(CC(=O)O)CCN(CC(=O)O)CCN(CC(=O)O)CC2)C(N)=O)NC(=O)[C@H](CC(=O)O)NC(=O)[C@H](Cc2cnc[nH]2)NC(=O)[C@H](Cc2ccc3ccccc3c2)NC(=O)[C@H](CC(N)=O)NC(=O)[C@H](CC(N)=O)NC1=O [compound 344, Ac-(7MeO-Trp)-T-I-C(3)-N-N-W-H-D-C(3)-W-P-[D-Lys(DOTA)]-CONH2] (Ac-[Trp(7-OMe)]TICNN[2Nal]HDCWP[dK](DOTA)-NH2; disulfide 4-10)
1 to 10 | CC[C@H](C)[C@H](NC(=O)[C@@H](NC(=O)[C@H](Cc1c[nH]c2ccccc12)NC(C)=O)[C@@H](C)O)C(=O)N[C@H]1CSSC[C@@H](C(=O)N[C@@H](Cc2c[nH]c3ccccc23)C(=O)N(C)[C@@H](CC(C)C)C(=O)N[C@H](CCCCNC(=O)CN2CCN(CC(=O)O)CCN(CC(=O)O)CCN(CC(=O)O)CC2)C(N)=O)NC(=O)[C@H](CC(=O)O)NC(=O)[C@H](Cc2cnc[nH]2)NC(=O)[C@H](Cc2c[nH]c3ccccc23)NC(=O)[C@H](CC(N)=O)NC(=O)[C@H](CC(N)=O)NC1=O [compound 345, Ac-W-T-I-C(3)-N-N-W-H-D-C(3)-W-NmeL-[D-Lys(DOTA)]-NH2] (Ac-WTICNNWHDCW[NMeL][dK](DOTA)-NH2; disulfide 4-10)
10 to 100 | CCCCCCCCCCCC(=O)NCCCC[C@H](NC(=O)[C@@H](NC(=O)[C@H](Cc1c[nH]c2ccccc12)NC(C)=O)[C@@H](C)O)C(=O)N[C@H]1CSSC[C@@H](C(=O)N[C@@H](Cc2c[nH]c3ccccc23)C(=O)N2CCC[C@H]2C(=O)N[C@H](CCCCNC(=O)CN2CCN(CC(=O)O)CCN(CC(=O)O)CCN(CC(=O)O)CC2)C(N)=O)NC(=O)[C@H](CC(=O)O)NC(=O)[C@H](Cc2cnc[nH]2)NC(=O)[C@H](Cc2c[nH]c3ccccc23)NC(=O)[C@H](CC(N)=O)NC(=O)[C@H](CC(N)=O)NC1=O [compound 346, Ac-W-T-K(C12)-C(3)-N-N-W-H-D-C(3)-W-P-[D-Lys(DOTA)]-NH2] (Ac-WTK(Lauroyl)CNNWHDCWP[dK](DOTA)-NH2; disulfide 4-10)
100 to 300 | CCCCCCCCCCCCCCCC(=O)NCCCC[C@H](NC(=O)[C@@H](NC(=O)[C@H](Cc1c[nH]c2ccccc12)NC(C)=O)[C@@H](C)O)C(=O)N[C@H]1CSSC[C@@H](C(=O)N[C@@H](Cc2c[nH]c3ccccc23)C(=O)N2CCC[C@H]2C(=O)N[C@H](CCCCNC(=O)CN2CCN(CC(=O)O)CCN(CC(=O)O)CCN(CC(=O)O)CC2)C(N)=O)NC(=O)[C@H](CC(=O)O)NC(=O)[C@H](Cc2cnc[nH]2)NC(=O)[C@H](Cc2c[nH]c3ccccc23)NC(=O)[C@H](CC(N)=O)NC(=O)[C@H](CC(N)=O)NC1=O [compound 348, Ac-W-T-K(C16)-C(3)-N-N-W-H-D-C(3)-W-P-[D-Lys(DOTA)]-NH2] (Ac-WTK(Palmitoyl)CNNWHDCWP[dK](DOTA)-NH2; disulfide 4-10)
1 to 10 | CC[C@H](C)[C@H](NC(=O)[C@@H](NC(=O)[C@H](Cc1c[nH]c2ccccc12)NC(=O)CCCCCCCCCCC(=O)O)[C@@H](C)O)C(=O)N[C@H]1CSSC[C@@H](C(=O)N[C@@H](Cc2c[nH]c3ccccc23)C(=O)N2CCC[C@H]2C(=O)N[C@H](CCCCNC(=O)CN2CCN(CC(=O)O)CCN(CC(=O)O)CCN(CC(=O)O)CC2)C(N)=O)NC(=O)[C@H](CC(=O)O)NC(=O)[C@H](Cc2cnc[nH]2)NC(=O)[C@H](Cc2c[nH]c3ccccc23)NC(=O)[C@H](CC(N)=O)NC(=O)[C@H](CC(N)=O)NC1=O [compound 349, C12OH-W-T-I-C(3)-N-N-W-H-D-C(3)-W-P-[D-Lys(DOTA)]-NH2] ({C12 diacid}-WTICNNWHDCWP[dK](DOTA)-NH2; disulfide 4-10)
< 1 | CC[C@H](C)[C@H](NC(=O)[C@@H](NC(=O)[C@H](Cc1c[nH]c2ccccc12)NC(C)=O)[C@@H](C)O)C(=O)N[C@H]1CSSC[C@@H](C(=O)N[C@@H](Cc2c[nH]c3ccccc23)C(=O)N(C)[C@@H](CCCCNC(=O)CN2CCN(CC(=O)O)CCN(CC(=O)O)CCN(CC(=O)O)CC2)C(N)=O)NC(=O)[C@H](CC(=O)O)NC(=O)[C@H](Cc2cnc[nH]2)NC(=O)[C@H](Cc2ccc3ccccc3c2)NC(=O)[C@H](CC(N)=O)NC(=O)[C@H](CC(N)=O)NC1=O [compound 352, Ac-W-T-I-C(3)-N-N-(2Nal)-H-D-C(3)-W-[NmeK(DOTA)]-NH2] (Ac-WTICNN[2Nal]HDCW[NMeK](DOTA)-NH2; disulfide 4-10)
< 1 | CC[C@H](C)[C@H](NC(=O)[C@@H](NC(=O)[C@H](Cc1c[nH]c2ccccc12)NC(C)=O)[C@@H](C)O)C(=O)N[C@H]1CSSC[C@@H](C(=O)N[C@@H](Cc2c[nH]c3ccccc23)C(=O)N2CCC[C@H]2C(=O)N[C@H](CCCCNC(=O)CNC(=O)[C@H](CO)NC(=O)CNC(=O)[C@H](CO)NC(=O)CNC(=O)[C@H](CO)NC(=O)CN2CCN(CC(=O)O)CCN(CC(=O)O)CCN(CC(=O)O)CC2)C(N)=O)NC(=O)[C@H](CC(=O)O)NC(=O)[C@H](Cc2cnc[nH]2)NC(=O)[C@H](Cc2ccc3ccccc3c2)NC(=O)[C@H](CC(N)=O)NC(=O)[C@H](CC(N)=O)NC1=O [compound 353, Ac-W-T-I-C(3)-N-N-(2Nal)-H-D-C(3)-W-P-[D-Lys(G-S-G-S-G-S-DOTA)]-NH2] (I: Ac-WTICNN[2Nal]HDCWP[dK]-NH2 / II: {DOTA}-SGSGSG; disulfide I:4-I:10; amide I:13-II:C)

From US20250011368A1, “DLL3 TARGETING PEPTIDES AND CONSTRUCTS THEREOF” (MARIANA ONCOLOGY INC., priority 2023, published 2025)
